Test results from ChEMBL document CHEMBL1132837, “3-(4-Piperidinyl)- and 3-(8-aza-bicyclo[3.2.1]oct-3-yl)-2-phenyl-1H-indoles as bioavailable h5-HT2A antagonists” (Bioorg Med Chem Lett, 2000).

Tests used:
[1] = molecular target: Dopamine D2 receptor and serotonin 2a receptor (Homo sapiens) (UniProt P14416+P28223); assay: Selectivity as ratio of Ki against human dopamine D2 and 5-HT2A receptors; format: protein assay
[2] = molecular target: Serotonin 2 receptors; 5-HT2a & 5-HT2c (Homo sapiens) (UniProt P28223+P28335); assay: Selectivity as ratio of Ki against human 5-HT2C and 5-HT2A receptors; format: protein assay
[3] = Oral bioavailability in rat; format: ADME, organism-based; settings: in vivo
[4] = molecular target: 5-hydroxytryptamine receptor 2A (Homo sapiens, UniProt P28223); assay: Displacement of [3H]ketanserin from human 5-hydroxytryptamine 2A receptor expressed in CHO cells; format: cell-based
[5] = Oral bioavailability was determined in dogs; format: ADME, organism-based, Canis lupus familiaris; settings: dog, in vivo, read-out: Bioavailabiility

Sequence of Dopamine D2 receptor and serotonin 2a receptor (Homo sapiens) (P14416 whole entry, looked up): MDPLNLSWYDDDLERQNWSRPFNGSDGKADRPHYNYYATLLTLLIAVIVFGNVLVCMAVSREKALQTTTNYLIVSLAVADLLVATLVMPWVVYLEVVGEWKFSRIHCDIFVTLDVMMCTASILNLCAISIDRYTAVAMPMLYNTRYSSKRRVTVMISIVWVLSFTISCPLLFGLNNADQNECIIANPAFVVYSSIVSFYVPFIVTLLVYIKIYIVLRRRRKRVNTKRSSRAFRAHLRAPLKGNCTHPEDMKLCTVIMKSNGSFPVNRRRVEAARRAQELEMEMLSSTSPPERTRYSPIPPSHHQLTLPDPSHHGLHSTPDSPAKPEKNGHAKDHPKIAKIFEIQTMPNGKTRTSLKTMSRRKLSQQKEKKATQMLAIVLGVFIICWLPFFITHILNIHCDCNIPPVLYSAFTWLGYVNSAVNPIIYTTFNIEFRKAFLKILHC
Sequence of Dopamine D2 receptor and serotonin 2a receptor (Homo sapiens) (P28223 whole entry, looked up): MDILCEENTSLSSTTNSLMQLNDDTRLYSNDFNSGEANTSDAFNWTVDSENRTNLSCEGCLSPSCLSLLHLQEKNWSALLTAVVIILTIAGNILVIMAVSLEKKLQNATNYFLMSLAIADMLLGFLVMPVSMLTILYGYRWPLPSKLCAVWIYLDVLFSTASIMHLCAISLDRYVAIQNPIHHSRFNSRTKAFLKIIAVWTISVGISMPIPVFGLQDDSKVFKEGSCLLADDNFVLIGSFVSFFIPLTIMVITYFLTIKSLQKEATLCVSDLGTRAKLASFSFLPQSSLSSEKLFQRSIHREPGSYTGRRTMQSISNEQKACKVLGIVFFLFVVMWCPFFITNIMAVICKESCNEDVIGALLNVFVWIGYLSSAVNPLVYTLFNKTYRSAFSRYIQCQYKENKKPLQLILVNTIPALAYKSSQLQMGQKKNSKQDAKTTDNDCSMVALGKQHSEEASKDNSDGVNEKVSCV
Sequence of 5-hydroxytryptamine receptor 2A (P28223 whole entry): as the sequence (P28223 whole entry, looked up) above
Sequence of Serotonin 2 receptors; 5-HT2a & 5-HT2c (Homo sapiens) (P28223 whole entry, looked up): as above
Sequence of Serotonin 2 receptors; 5-HT2a & 5-HT2c (Homo sapiens) (P28335 whole entry, looked up): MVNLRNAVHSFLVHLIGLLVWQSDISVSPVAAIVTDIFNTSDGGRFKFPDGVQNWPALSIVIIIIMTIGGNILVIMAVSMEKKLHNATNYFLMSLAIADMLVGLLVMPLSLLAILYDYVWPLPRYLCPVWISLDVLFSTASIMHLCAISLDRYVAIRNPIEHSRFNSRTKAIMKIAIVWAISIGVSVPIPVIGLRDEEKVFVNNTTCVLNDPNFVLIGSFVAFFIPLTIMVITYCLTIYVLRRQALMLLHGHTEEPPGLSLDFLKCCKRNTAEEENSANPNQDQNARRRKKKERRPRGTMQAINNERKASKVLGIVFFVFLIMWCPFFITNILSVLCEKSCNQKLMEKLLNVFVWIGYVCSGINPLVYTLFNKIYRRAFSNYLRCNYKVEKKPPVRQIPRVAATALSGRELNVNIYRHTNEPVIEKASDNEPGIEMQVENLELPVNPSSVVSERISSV

bioavailability [5] | Compound | Ratio [1] | Ratio [2] | bioavailability [3] | Ki [4]
– | CN1[C@@H]2CC[C@H]1C[C@H](N1CCC(c3c(-c4ccccc4)[nH]c4ccccc34)CC1)C2 (stereo in doubt; 15) [listing 1 of 2 here] | 960 | 45 | – | –
– | c1ccc(-c2[nH]c3ccccc3c2CCN2CCCCC2)cc1 | 330 | 100 | < 5% | –
– | c1ccc(-c2[nH]c3ccccc3c2C2CC3CCC(C2)N3)cc1 (configuration not stated) | 1060 | 200 | – | 1.8 nM
– | c1ccc(CCN2C3CCC2CC(N2CCC(c4c(-c5ccccc5)[nH]c5ccccc45)CC2)C3)cc1 (stereo in doubt; 17) [listing 1 of 2 here] | 1080 | 860 | – | –
– | CN1[C@@H]2CC[C@H]1C[C@H](N1CCC(c3c(-c4ccccc4)[nH]c4ccccc34)CC1)C2 (stereo in doubt; 15) [listing 2 of 2 here] | – | – | – | 1.5 nM
– | c1ccc(-c2[nH]c3ccccc3c2C2CCNCC2)cc1 | 130 | 30 | – | 12.1 nM
– | c1ccc(CCN2C3CCC2CC(N2CCC(c4c(-c5ccccc5)[nH]c5ccccc45)CC2)C3)cc1 (stereo in doubt; 18) [listing 1 of 2 here] | 170 | 60 | – | –
– | c1ccc(CCN2CCC(c3c(-c4ccccc4)[nH]c4ccccc34)CC2)cc1 | 690 | 160 | 12% | 0.5 nM
33% | O=C1NCCN1CCN1CCC(c2c(-c3ccccc3)[nH]c3ccccc23)CC1 | 250 | 160 | 40% | 7.3 nM
– | c1ccc(CN2CCC(c3c(-c4ccccc4)[nH]c4ccccc34)CC2)cc1 | 2 | 30 | – | 28 nM
– | CN1[C@@H]2CC[C@H]1C[C@H](N1CCC(c3c(-c4ccccc4)[nH]c4ccccc34)CC1)C2 (stereo in doubt; 13) [listing 1 of 2 here] | 1190 | 70 | – | –
– | c1ccc(CCN2C3CCC2CC(N2CCC(c4c(-c5ccccc5)[nH]c5ccccc45)CC2)C3)cc1 (stereo in doubt; 18) [listing 2 of 2 here] | – | – | – | 2.6 nM
– | c1ccc(CCN2C3CCC2CC(N2CCC(c4c(-c5ccccc5)[nH]c5ccccc45)CC2)C3)cc1 (stereo in doubt; 17) [listing 2 of 2 here] | – | – | 18% | 1.2 nM
– | CN1CCC(c2c(-c3ccccc3)[nH]c3ccccc23)CC1 | 205 | 30 | – | 7.8 nM
– | CN1[C@@H]2CC[C@H]1C[C@H](N1CCC(c3c(-c4ccccc4)[nH]c4ccccc34)CC1)C2 (stereo in doubt; 13) [listing 2 of 2 here] | – | – | – | 1.1 nM
